Test [1] deals with human melanoma cell line WM2664. The experiment in a line: Cell cycle analysis (BrdU incorporation in vitro), WM2664. It counts as cell-based. As to conditions: for cell cycle effect: WM2664, 24 hours exposure. An excerpt: (§1) FIG. 3A is a set of graphs showing the dose-response curves for cycle analysis in both cyclin-dependent kinase 4/6 (CKD4/6)-dependent cells (human telomerized human diploid fibroblasts (tHDFs, left-hand column of graphs) and a CDK4/6-dependent human melanoma cell line (WM2664, middle column of graphs)) and in CDK4/6-independent cells (a human retinoblastoma tumor suppressor protein (RB)-null melanoma cell line (A2058), right-hand column of graphs). […] The percentage of cells in the G1 phase is indicated by the data shown in the open triangles, while the percentage of cells in the S phase is shown by the data in the shaded circles and the percentage of cells in the G2/M phase is indicated by the data in the double “x”s.
FIG. 8 is a set of representative cell cycle dot-plots for cyclin-dependent kinase 4/6 (CDK4/6)-dependent (WM2664) human melanoma cells (top two rows) and CDK4/6-independent (A2058) human melanoma cells (bottom two rows) that had been treated with dimethyl sulfoxide (DMSO) as a control or with 300 nM, 1 μM, 3 μM, 10 μM or 30 μM of trans-4-[[6-ethylamino)-2-[[2-phenylmethyl)-1H-indol-5-yl]amino]-4-pyrimidinyl]amino]]-cyclohexanol (CINK4).
(§2) Cell Lines: KPTR1, KPTR4. and KPTR5 were derived from tumor-bearing TyrRAS+Ink4a/Arf−/− by standard procedures and cultured in RPMI+10% fetal bovine serum (FBS). Telomerized HDFs (tHDFs, also known as HS68) were cultured in DMEM+10% FBS with penicillin and streptomycin. The same conditions were used for A2058 and WM2664, human melanoma cell lines with known RB-pathway mutations: A2058 is RB-null, whereas WM2664 lacks p16^INK4a/Arf. See Shields, et al., Cancer Res., 67, 1502-1512 (2007). Cells were irradiated for indicated doses in a Rad Source Inc. (Alpharetta, Ga., United States of America) RS-2000 Biological Irradiator at 160 kV, 25.0 mA, at distance setting 1, with a dose rate of 103 rads/min.
(§3) BrdU Incorporation in vitro: Cells were plated and allowed to adhere overnight or at least 6 hours prior to adding CDK4/6 inhibitor at the indicated concentrations. Cells were grown for 24 hours in the presence of CDK4/6 inhibitor. 15 minutes prior to cell harvesting, 5-Bromo-2-deoxyuridine (BrdU) was added to the media at a final concentration of 10 μM. The cells were then washed, trypsinized, pelleted, fixed, permeabilized, stained, and measured on a flow cytometer as described in manufacturer directions for the BrdU Kit (BD Biosciences Pharmingen, San Diego, Calif., United States of America).
(§4) The proliferation of seven RB-deficient human small cell lung cancer lines was also resistant to the selective CDK4/6 inhibitors.
On the technique in general: Dividing cells build labelled thymidine or BrdU into new DNA.

The test system of test [2] is telomerized human diploid fibroblasts (tHDF). Nature of the test: Cell cycle analysis (BrdU incorporation in vitro), tHDF. As to conditions: 24 hours exposure. The test is classed as cell-based.
From the text: as §1, §2, §3, §4

In test [3] the test system is tHDF (HS68) cells. The experiment in a line: Clonogenic assay after IR, tHDF (HS68). It counts as cell-based, human. As to conditions: PD0332991 100 nM, 2BrIC 2 μM, CINK4 6 μM, IR 0-9 Gy. On the procedure:
FIG. 6A is a set of micrograph images of crystal violet stained cell cultures of cyclin-dependent kinase 4/6 (CDK4/6)-dependent cells (HS68) plated at different cell/well ratios and treated with either dimethyl sulfoxide (DMSO) as a negative control or with the selective CDK4/6 inhibitor 2-bromo-12,13-dihydro-5H-indolo[2,3-a]pyrrolo[3,4]carbazole-5,6-dione (2BrIC) at 2 μM for 24 hours prior to exposure to ionizing radiation at 0, 1.5, 3, 6, or 9 gray (Gy), as indicated.
Data plotted is the area/cell ratio of PD0332991 treated cells to dimethyl sulfoxide (DMSO) treated cells. Error bars show standard error of the mean.
FIG. 9A is a set of micrograph images of cell cultures of cyclin-dependent kinase 4/6 (CDK4/6)-dependent cells (HS68) plated at different cell/well ratios and pretreated with either dimethyl sulfoxide (DMSO) as a control or with the nonselective CDK4/6 inhibitor trans-4-[[6-ethylamino)-2-[[1-phenylmethyl)-1H-indol-5-yl]amino]-4-pyrimidinyl]amino]]-cyclohexanol (CINK4) at 6 μM for 24 hours prior to exposure to ionizing radiation at 0, 1.5, 3, 6, or 9 gray (Gy), as indicated. The plates were stained with crystal violet to visualize cell colonies.
Clonogenic Assay: The clonogenic assay was performed as previously described (see Franken et al., Nature protocols, 1, 2315-1319 (2006)) with cells plated in a six-well plate at least 6 hours prior to treatment with CDK inhibitor for 24 hours, with 6 Gy IR occurring 12 hours after initiation of CDK inhibitor exposure. Cells were grown for 16 days, washed, fixed, and stained with crystal violet. Plates were then imaged using an Odyssey infrared scanner (Li-Cor Biosciences, Lincoln, Nebr., United States of America) and quantified using the accompanying software.

In test [4] the test system is RB-null melanoma line A2058. The experiment in a line: Cell cycle analysis (BrdU incorporation in vitro), A2058. It counts as cell-based, human. As to conditions: A2058, concentrations between 300 nM and 30 μM. An excerpt: FIG. 3A is a set of graphs showing the dose-response curves for cycle analysis in both cyclin-dependent kinase 4/6 (CKD4/6)-dependent cells (human telomerized human diploid fibroblasts (tHDFs, left-hand column of graphs) and a CDK4/6-dependent human melanoma cell line (WM2664, middle column of graphs)) and in CDK4/6-independent cells (a human retinoblastoma tumor suppressor protein (RB)-null melanoma cell line (A2058), right-hand column of graphs). […] The percentage of cells in the G1 phase is indicated by the data shown in the open triangles, while the percentage of cells in the S phase is shown by the data in the shaded circles and the percentage of cells in the G2/M phase is indicated by the data in the double “x”s. […]
BrdU Incorporation in vitro: Cells were plated and allowed to adhere overnight or at least 6 hours prior to adding CDK4/6 inhibitor at the indicated concentrations. […] The cells were then washed, trypsinized, pelleted, fixed, permeabilized, stained, and measured on a flow cytometer as described in manufacturer directions for the BrdU Kit (BD Biosciences Pharmingen, San Diego, Calif., United States of America). […]

Entries after “also recorded” stand apart in the source; their conditions may differ.

With `COc1ccc(F)c(F)c1C(=O)c1cnc(NC2CCN(S(C)(=O)=O)CC2)nc1N` [Compound 7], the cell cycle effect entry is recorded as “G2/M block, intra-S arrest, or cell death (sub-GO)” in test [1] and “G2/M block, intra-S arrest, or cell death (sub-GO)” in test [2].

As for `CC[C@H](CO)Nc1nc(NCc2ccccc2)c2ncn(C(C)C)c2n1` [roscovitine, Roscovitine], the cell cycle effect result is “G2/M block, intra-S arrest, or cell death (sub-GO)” in test [1] and “G2/M block, intra-S arrest, or cell death (sub-GO)” in test [2].

As to `CN1CC[C@H](c2c(O)cc(O)c3c(=O)cc(-c4ccccc4Cl)oc23)[C@H](O)C1` [flavopiridol], the cell cycle effect entry in test [1] is given as “G2/M block, intra-S arrest, or cell death (sub-GO)”; in test [2], “G2/M block, intra-S arrest, or cell death (sub-GO)”.

With `CCNc1cc(N[C@H]2CC[C@H](O)CC2)nc(Nc2ccc3c(ccn3Cc3ccccc3)c2)n1` [CINK4], the “substantially pure G1 arrest” value in test [1] (WM2664, concentrations between 300 nM and 30 μM) was “did not induce a substantially pure (i.e. “clean”) G1 arrest”; in test [4], “did not induce a substantially pure (i.e. “clean”) G1 arrest”. The “clonogenic cell survival after IR (area/cell ratio relative to DMSO)” value in test [3] is given as “failed to enhance cell survival; also recorded: lack of enhanced cell survival”.

The values are drawn from patent publication US20110224221A1, “HEMATOPOIETIC PROTECTION AGAINST IONIZING RADIATION USING SELECTIVE CYCLIN-DEPENDENT KINASE 4/6 INHIBITORS” (priority 2008, published 2011).
